Measured values from PubChem BioAssay AID1963978 (Molecular Pharmacology Branch, DTP, NCI, 2024).

System: 616215-338-R-J1-PDC spheroids with HUVEC/MSC, viability
Assay: Anticancer human tumor 616215-338-R-J1-PDC patient-derived colon adenocarcinoma cell line growth inhibition [PI3K]
Details: for viability, T/C: stronger effect = lower value
Outline: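 Agents were dosed from a top concentration near clinical Cmax (otherwise 10 microM) in half-log decrements, alone or combined with PI3K inhibitors. The spheroids contain tumor cells plus endothelial (HUVEC) and MSC stroma; viability is measured.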

[1] = curve of first compound, second compound 0.00316 µM
[2] = curve of first compound, second compound 0.01 µM
[3] = curve of first compound, second compound 0.0316 µM
[4] = curve of first compound, second compound 0.1 µM
[5] = curve of first compound, second compound 0.316 µM
[6] = curve of first compound, second compound 1 µM
[7] = second compound 0.00316 µM, first compound 0.0316 µM
[8] = second compound 0.00316 µM, first compound 0.1 µM
[9] = second compound 0.01 µM, first compound 0.0316 µM
[10] = second compound 0.01 µM, first compound 0.1 µM
[11] = second compound 0.0316 µM, first compound 0.0316 µM
[12] = second compound 0.0316 µM, first compound 0.1 µM
[13] = second compound 0.1 µM, first compound 0.0316 µM
[14] = second compound 0.1 µM, first compound 0.1 µM
[15] = second compound 0.316 µM, first compound 0.0316 µM
[16] = second compound 0.316 µM, first compound 0.1 µM
[17] = second compound 1 µM, first compound 0.0316 µM
[18] = second compound 1 µM, first compound 0.1 µM
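Also: spheroids exposed to agents for seven days before the viability read.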

Cn1nccc1Nc1nccc(-c2ccn(C(CO)c3ccc(Cl)c(F)c3)c(=O)c2)n1 (stereo not drawn)
viability, T/C (compound 0.0316 µM): 96.3% [middle of 4 runs] | viability, T/C (compound 0.1 µM): 101% [middle of 4 runs] | viability, T/C (compound 0.316 µM): 90.4% [middle of 4 runs] | viability, T/C (compound 1 µM): 66.4% [middle of 4 runs] | viability, T/C (compound 3.16 µM): 56.4% [middle of 4 runs] | viability, T/C (compound 10 µM): 40.1% [middle of 4 runs] | IC50 (curve of compound): 3.91 µM [middle of 4 runs]

CC(=O)c1c(C)c2cnc(Nc3ccc(N4CCNCC4)cn3)nc2n(C2CCCC2)c1=O + COc1c(OCCCN2CCOCC2)ccc2c3n(c(=NC(=O)c4cnc(N)nc4)nc12)CCN3
IC50 [1]: > 0.1 µM | IC50 [2]: > 0.1 µM | IC50 [3]: > 0.1 µM | IC50 [4]: > 0.1 µM | IC50 [5]: < 0.000316 µM | IC50 [6]: < 0.000316 µM | viability, T/C (second compound 0.00316 µM, first compound 0.000316 µM): 91% | viability, T/C (second compound 0.00316 µM, first compound 0.001 µM): 98.3% | viability, T/C (second compound 0.00316 µM, first compound 0.00316 µM): 103% | viability, T/C (second compound 0.00316 µM, first compound 0.01 µM): 101% | viability, T/C [7]: 88.8% | viability, T/C [8]: 94.7% | viability, T/C (second compound 0.01 µM, first compound 0.000316 µM): 93.4% | viability, T/C (second compound 0.01 µM, first compound 0.001 µM): 95.9% | viability, T/C (second compound 0.01 µM, first compound 0.00316 µM): 90.7% | viability, T/C (second compound 0.01 µM, first compound 0.01 µM): 99.3% | viability, T/C [9]: 101% | viability, T/C [10]: 116% | viability, T/C (second compound 0.0316 µM, first compound 0.000316 µM): 103% | viability, T/C (second compound 0.0316 µM, first compound 0.001 µM): 100% | viability, T/C (second compound 0.0316 µM, first compound 0.00316 µM): 99.8% | viability, T/C (second compound 0.0316 µM, first compound 0.01 µM): 99.4% | viability, T/C [11]: 97.9% | viability, T/C [12]: 90.7% | viability, T/C (second compound 0.1 µM, first compound 0.000316 µM): 93.1% | viability, T/C (second compound 0.1 µM, first compound 0.001 µM): 92.7% | viability, T/C (second compound 0.1 µM, first compound 0.00316 µM): 96.1% | viability, T/C (second compound 0.1 µM, first compound 0.01 µM): 85.4% | viability, T/C [13]: 79.4% | viability, T/C [14]: 58.7% | viability, T/C (second compound 0.316 µM, first compound 0.000316 µM): 48.4% | viability, T/C (second compound 0.316 µM, first compound 0.001 µM): 36.3% | viability, T/C (second compound 0.316 µM, first compound 0.00316 µM): 40.9% | viability, T/C (second compound 0.316 µM, first compound 0.01 µM): 31.2% | viability, T/C [15]: 37.7% | viability, T/C [16]: 23.4% | viability, T/C (second compound 1 µM, first compound 0.000316 µM): 28.6% | viability, T/C (second compound 1 µM, first compound 0.001 µM): 20.7% | viability, T/C (second compound 1 µM, first compound 0.00316 µM): 18.9% | viability, T/C (second compound 1 µM, first compound 0.01 µM): 16.8% | viability, T/C [17]: 18.8% | viability, T/C [18]: 18.4%

CC(C)NCC(C(=O)N1CCN(c2ncnc3c2C(C)CC3O)CC1)c1ccc(Cl)cc1 (stereo not drawn) + CC(Nc1ccc2c(c1)OCCn1cc(N3C(=O)OCC3C(F)F)nc1-2)C(N)=O
IC50 [1]: 6.44 µM | IC50 [2]: 5.88 µM | IC50 [3]: 5.98 µM | IC50 [4]: 4.99 µM | IC50 [5]: 5.13 µM | IC50 [6]: 3.76 µM | viability, T/C [7]: 86.5% | viability, T/C [8]: 95.8% | viability, T/C (second compound 0.00316 µM, first compound 0.316 µM): 95.8% | viability, T/C (second compound 0.00316 µM, first compound 1 µM): 98.2% | viability, T/C (second compound 0.00316 µM, first compound 3.16 µM): 69.9% | viability, T/C (second compound 0.00316 µM, first compound 10 µM): 37.7% | viability, T/C [9]: 88.5% | viability, T/C [10]: 102% | viability, T/C (second compound 0.01 µM, first compound 0.316 µM): 90.4% | viability, T/C (second compound 0.01 µM, first compound 1 µM): 110% | viability, T/C (second compound 0.01 µM, first compound 3.16 µM): 70% | viability, T/C (second compound 0.01 µM, first compound 10 µM): 32.9% | viability, T/C [11]: 97.7% | viability, T/C [12]: 104% | viability, T/C (second compound 0.0316 µM, first compound 0.316 µM): 98% | viability, T/C (second compound 0.0316 µM, first compound 1 µM): 98.1% | viability, T/C (second compound 0.0316 µM, first compound 3.16 µM): 65.8% | viability, T/C (second compound 0.0316 µM, first compound 10 µM): 37.2% | viability, T/C [13]: 95% | viability, T/C [14]: 94.6% | viability, T/C (second compound 0.1 µM, first compound 0.316 µM): 95% | viability, T/C (second compound 0.1 µM, first compound 1 µM): 93.6% | viability, T/C (second compound 0.1 µM, first compound 3.16 µM): 65.7% | viability, T/C (second compound 0.1 µM, first compound 10 µM): 26.1% | viability, T/C [15]: 110% | viability, T/C [16]: 99.9% | viability, T/C (second compound 0.316 µM, first compound 0.316 µM): 95.5% | viability, T/C (second compound 0.316 µM, first compound 1 µM): 103% | viability, T/C (second compound 0.316 µM, first compound 3.16 µM): 65.9% | viability, T/C (second compound 0.316 µM, first compound 10 µM): 28% | viability, T/C [17]: 106% | viability, T/C [18]: 95.5% | viability, T/C (second compound 1 µM, first compound 0.316 µM): 105% | viability, T/C (second compound 1 µM, first compound 1 µM): 88.9% | viability, T/C (second compound 1 µM, first compound 3.16 µM): 54% | viability, T/C (second compound 1 µM, first compound 10 µM): 29.3%

CC(=O)c1c(C)c2cnc(Nc3ccc(N4CCNCC4)cn3)nc2n(C2CCCC2)c1=O
viability, T/C (compound 0.000316 µM): 96.5% [middle of 4 runs] | viability, T/C (compound 0.001 µM): 98.8% [middle of 4 runs] | viability, T/C (compound 0.00316 µM): 98.5% [middle of 4 runs] | viability, T/C (compound 0.01 µM): 112% [middle of 4 runs] | viability, T/C (compound 0.0316 µM): 97.5% [middle of 4 runs] | viability, T/C (compound 0.1 µM): 115% [middle of 4 runs] | IC50 (curve of compound): > 0.1 µM
